Measurements: patent EP2787958B1, “CHELIDONIUM MAJUS EXTRACTS AND THEIR USE IN THE TREATMENT OF SKIN DISORDERS AND PROMOTION OF SKIN REGENERATION” (priority 2011, dated 2013)
Read-outs that look alike come from different tables or passages of the source.

Key:
[1] = test system: HUVEC cells (Human Umbilical Vein Endothelial Cells); assay: Mitochondrial dehydrogenase activity (WST-1 formazan assay) in HUVEC cells; type: cell-based; settings: vascular endothelial cells
[2] = test system: HDF cells; assay: Evaluation of cell proliferation (counting of Sirius Red stained cells in photographs); settings: 24 hours
[3] = test system: interleukin 1β (IL-1β); assay: Inflammatory cytokines in cell supernatant (Mosaic ELISA microarray): IL-1β; type: cell-based, Human; settings: 24 hours
[4] = test system: Human keratinocytes (HEK, Human Epidermal Keratinocytes); assay: Mitochondrial dehydrogenase activity (WST-1 formazan assay) in HEK cells; type: cell-based
[5] = test system: HDF cells; assay: Summary of uses and toxic effects deduced from the cell assays (Table 1); type: cell-based, Human
Summary of the method: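 HDF cells exposed to test substances at a given dosage for 24 h; uses and toxicity inferred from free-radical scavenging, mitochondrial dehydrogenase activity, IL-1β/IL-6 production (basal or induced by 100 µM H2O2), proliferation under standard growth conditions, and senescence-like morphology.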

[6] = test system: collagen produced by HDF cells; assay: Quantity of collagen produced by the cells (elution of Sirius Red); settings: 1-10 µM (1 µM and 10 µM)
[7] = test system: Human dermal fibroblasts (HDF); assay: Mitochondrial dehydrogenase activity (WST-1 formazan assay) in HDF cells; settings: for Revitalizing agent: 24 hours; for activity at 1 µM / activity at 10 µM: Homo sapiens, Fibroblast, read-out: % mitochondrial dehydrogenase activity ± SD
[8] = test system: interleukin 6 (IL-6); assay: Inflammatory cytokines in cell supernatant (Mosaic ELISA microarray): IL-6; type: cell-based, Human; settings: for IL-6 ng/(ml* No. of cells from photo) ± SD: 24 hours; for IL-6 production (effect in words): 1-10 µM
[9] = Anti-radical activity (decay of the DPPH radical); type: biochemical; settings: for Anti-radical (skin protective): 24 hours
Summary of the method: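 Test substance in ethanol mixed 1:1 with 200 µM DPPH (stock concentrations), in quadruplicate. Absorbance read at 530 nm after 30 min, with vitamin C and ethanol-only controls. IC50 from variable-slope Hill regression of dose-activity curves.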

[10] = Dose 1 µm (coptisine: 1 pm [sic]), 24 hours
[11] = Dose 1 µm (coptisine: 1 pm [sic])

COc1ccc2cc3[n+](cc2c1OC)CCc1cc2c(cc1-3)OCO2 [berberine]
mitochondrial dehydrogenase activity (effect in words) ([1]; higher doses): inhibit mitochondrial dehydrogenase activity
mitochondrial dehydrogenase activity (effect in words) ([1]; low doses): stimulate mitochondrial dehydrogenase activity
No. of cells from photo ± SD ([2]; 1 µM, 34 ng/ml TGF-β1): 181±18
No. of cells from photo ± SD ([2]; 1 µM, 100 µM H2O2): 129±24
No. of cells from photo ± SD ([2]; 1 µM, Standard conditions): 203±11
No. of cells from photo ± SD ([2]; 10 µM, 34 ng/ml TGF-β1): 184±28
No. of cells from photo ± SD ([2]; 10 µM, 100 µM H2O2): 119±10
No. of cells from photo ± SD ([2]; 10 µM, Standard conditions): 176±35
IL-1β ng/(ml* No. of cells from photo) ± SD ([3]; 1 µM, 34 ng/ml TGF-β1): 138±5 ng/(ml* No. of cells from photo)
IL-1β ng/(ml* No. of cells from photo) ± SD ([3]; 1 µM, 100 µM H2O2): 178±1 ng/(ml* No. of cells from photo)
IL-1β ng/(ml* No. of cells from photo) ± SD ([3]; 1 µM, Standard conditions): 120±6 ng/(ml* No. of cells from photo)
IL-1β ng/(ml* No. of cells from photo) ± SD ([3]; 10 µM, 34 ng/ml TGF-β1): 146±4 ng/(ml* No. of cells from photo)
IL-1β ng/(ml* No. of cells from photo) ± SD ([3]; 10 µM, 100 µM H2O2): 210±16 ng/(ml* No. of cells from photo)
IL-1β ng/(ml* No. of cells from photo) ± SD ([3]; 10 µM, Standard conditions): 94±5 ng/(ml* No. of cells from photo)
mitochondrial dehydrogenase activity (effect in words) ([4]; higher doses): inhibit mitochondrial dehydrogenase activity
mitochondrial dehydrogenase activity (effect in words) ([4]; low doses): stimulate mitochondrial dehydrogenase activity
Cytotoxic [5]: No
Irritant [5]: No
Anti-fibrotic (prevention of scar formation, also from acne) [5, 10]: Yes (↓collagen, ↓IL-6)
Cytoprotective (antioxidant, anti-inflammatory and anti-ageing; useful also in the treatment of acne) [5, 10]: Yes* (↓IL-6)
Wound-healing [5, 10]: No
Anti-fibrotic (prevention of scar formation, also from acne) ([5]; Dose 10 µm, 24 hours): Yes (↓collagen, ↓IL-6)
Cytoprotective (antioxidant, anti-inflammatory and anti-ageing; useful also in the treatment of acne) ([5]; Dose 10 µm, 24 hours): Yes* (↓IL-6)
Cytotoxic ([5]; Dose 10 µm, 24 hours): No
Irritant ([5]; Dose 10 µm, 24 hours): No
Wound-healing ([5]; Dose 10 µm, 24 hours): No
concentrations at which no toxic (cytotoxic and irritant) effects are shown ([5]; exposure for 24 hours): less than or equal to 10 µM
collagen production (effect in words) ([6]; 34 ng/ml TGF-β1): antagonizes the stimulation of collagen induced by 34 ng/ml TGF-β1
collagen production (effect in words) ([6]; 100 µM H2O2): antagonizes the inhibition of collagen production induced by H2O2
mitochondrial dehydrogenase activity (effect in words) ([7]; 1 and 10 µM, 18 h and 42 h, more marked at 42 h): increased with respect to the control
Revitalizing agent [7, 11]: Yes
Revitalizing agent ([7]; Dose 10 µm): Yes
activity at 1 µM ([7]; 18 h): 114 ± 2.98%
activity at 10 µM ([7]; 18 h): 114 ± 10%
activity at 1 µM ([7]; 42 h): 140 ± 8.89%
activity at 10 µM ([7]; 42 h): 132 ± 10.2%
mitochondrial dehydrogenase activity (effect in words) ([7]; fibroblast cells, higher doses): inhibit mitochondrial dehydrogenase activity
mitochondrial dehydrogenase activity (effect in words) ([7]; fibroblast cells, low dosage): stimulate mitochondrial dehydrogenase activity
IL-6 ng/(ml* No. of cells from photo) ± SD ([8]; 1 µM, 34 ng/ml TGF-β1): 657±5 ng/(ml* No. of cells from photo)
IL-6 ng/(ml* No. of cells from photo) ± SD ([8]; 1 µM, 100 µM H2O2): 1519±155 ng/(ml* No. of cells from photo)
IL-6 ng/(ml* No. of cells from photo) ± SD ([8]; 1 µM, Standard conditions): 843±35 ng/(ml* No. of cells from photo)
IL-6 ng/(ml* No. of cells from photo) ± SD ([8]; 10 µM, 34 ng/ml TGF-β1): 603±21 ng/(ml* No. of cells from photo)
IL-6 ng/(ml* No. of cells from photo) ± SD ([8]; 10 µM, 100 µM H2O2): 1201±84 ng/(ml* No. of cells from photo)
IL-6 ng/(ml* No. of cells from photo) ± SD ([8]; 10 µM, Standard conditions): 618±25 ng/(ml* No. of cells from photo)
IL-6 production (effect in words) ([8]; 34 ng/ml TGF-β1): tendency to reduce the production of IL-6 in a dose-dependent manner
IL-6 production (effect in words) ([8]; 100 µM H2O2): tendency to reduce the production of IL-6 in a dose-dependent manner
IL-6 production (effect in words) ([8]; standard conditions): tendency to reduce the production of IL-6 in a dose-dependent manner
% DPPH activity ([9]; 1 mM, 30 minutes): 100%
Anti-radical (skin protective) [9, 11]: No
Anti-radical (skin protective) ([9]; Dose 10 µm): No
